In assay [1] the target is T1, Mitogen-activated protein kinase kinase kinase 7 (Homo sapiens) (UniProt O43318).
T1 sequence (whole entry): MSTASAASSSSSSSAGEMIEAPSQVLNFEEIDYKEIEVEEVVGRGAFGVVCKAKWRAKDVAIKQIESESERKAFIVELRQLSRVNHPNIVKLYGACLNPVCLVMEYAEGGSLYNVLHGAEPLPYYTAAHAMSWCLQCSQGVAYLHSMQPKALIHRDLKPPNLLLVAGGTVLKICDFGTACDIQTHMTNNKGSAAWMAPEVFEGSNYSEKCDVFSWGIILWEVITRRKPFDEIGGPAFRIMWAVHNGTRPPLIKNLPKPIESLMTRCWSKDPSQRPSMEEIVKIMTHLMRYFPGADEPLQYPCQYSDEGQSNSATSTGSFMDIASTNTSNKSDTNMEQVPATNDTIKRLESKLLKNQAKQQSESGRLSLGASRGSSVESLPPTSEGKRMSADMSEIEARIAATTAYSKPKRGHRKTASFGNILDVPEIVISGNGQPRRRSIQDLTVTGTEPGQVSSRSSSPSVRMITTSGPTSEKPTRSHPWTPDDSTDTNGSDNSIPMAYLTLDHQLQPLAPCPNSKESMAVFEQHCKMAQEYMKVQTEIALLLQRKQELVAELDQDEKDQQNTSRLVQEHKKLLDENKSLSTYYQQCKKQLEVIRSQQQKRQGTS
Description: Inhibition of human recombinant TAK1 at 40 nM in presence of ATP by radiometric assay relative to control.

Assay [2] addresses Tyrosine-protein kinase FRK (Homo sapiens) (UniProt P42685). Description: Inhibition of human recombinant FRK at 40 nM related to control ULK1.
Assay [3] deals with [Pyruvate dehydrogenase (acetyl-transferring)] kinase isozyme 4, mitochondrial (Homo sapiens) (UniProt Q16654). Description: Inhibition of human recombinant PDHK4 at 40 nM in presence of ATP by radiometric assay relative to control.
Assay [4] concerns the target T2, Dual specificity mitogen-activated protein kinase kinase 6 (Homo sapiens) (UniProt P52564).
T2 sequence (whole entry): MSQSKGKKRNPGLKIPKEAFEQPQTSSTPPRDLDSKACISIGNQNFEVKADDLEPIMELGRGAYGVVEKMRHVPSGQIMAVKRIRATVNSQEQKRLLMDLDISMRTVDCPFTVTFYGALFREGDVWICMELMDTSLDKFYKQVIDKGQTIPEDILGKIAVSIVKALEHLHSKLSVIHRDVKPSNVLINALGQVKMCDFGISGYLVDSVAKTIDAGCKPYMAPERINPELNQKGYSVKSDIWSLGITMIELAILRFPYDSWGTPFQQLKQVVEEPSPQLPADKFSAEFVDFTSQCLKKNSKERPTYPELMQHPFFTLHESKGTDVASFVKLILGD
Description: Inhibition of human recombinant MAP2K6 at 40 nM related to control ULK1.

For assay [5], the target named is Serine/threonine-protein kinase PAK 4 (Homo sapiens) (UniProt O96013). The assay is described as follows: Inhibition of human recombinant PAK4 at 40 nM in presence of ATP by radiometric assay relative to control.
Assay [6] has as its target T3, Serine/threonine-protein kinase TAO1 (Homo sapiens) (UniProt Q7L7X3).
T3 sequence (whole entry): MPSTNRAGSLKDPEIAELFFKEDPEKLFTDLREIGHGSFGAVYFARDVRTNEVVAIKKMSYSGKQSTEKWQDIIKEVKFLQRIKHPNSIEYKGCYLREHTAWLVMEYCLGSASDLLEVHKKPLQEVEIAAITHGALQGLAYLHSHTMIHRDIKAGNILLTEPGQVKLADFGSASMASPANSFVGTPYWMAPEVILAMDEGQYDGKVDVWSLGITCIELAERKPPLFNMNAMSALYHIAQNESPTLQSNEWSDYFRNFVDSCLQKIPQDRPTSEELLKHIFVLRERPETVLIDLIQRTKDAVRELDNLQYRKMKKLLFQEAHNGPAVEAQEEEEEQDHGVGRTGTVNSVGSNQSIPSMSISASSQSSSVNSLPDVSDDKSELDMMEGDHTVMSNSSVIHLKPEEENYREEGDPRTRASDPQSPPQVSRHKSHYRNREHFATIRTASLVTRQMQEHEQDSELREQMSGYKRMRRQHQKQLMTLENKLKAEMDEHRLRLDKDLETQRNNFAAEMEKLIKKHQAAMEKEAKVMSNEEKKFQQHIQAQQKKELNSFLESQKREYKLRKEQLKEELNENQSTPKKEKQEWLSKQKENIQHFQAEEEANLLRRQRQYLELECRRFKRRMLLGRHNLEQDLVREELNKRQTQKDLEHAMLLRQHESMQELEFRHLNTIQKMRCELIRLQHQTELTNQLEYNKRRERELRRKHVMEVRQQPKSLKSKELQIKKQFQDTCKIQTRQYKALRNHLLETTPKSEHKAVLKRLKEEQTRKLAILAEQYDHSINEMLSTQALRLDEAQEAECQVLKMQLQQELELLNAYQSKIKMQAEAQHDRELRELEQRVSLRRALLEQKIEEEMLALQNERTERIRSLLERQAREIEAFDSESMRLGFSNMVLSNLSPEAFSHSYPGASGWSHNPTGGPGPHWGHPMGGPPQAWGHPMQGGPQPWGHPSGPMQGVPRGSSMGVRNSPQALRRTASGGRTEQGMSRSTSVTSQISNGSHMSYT
The assay is described as follows: Inhibition of human recombinant TAO1 at 40 nM in presence of ATP by radiometric assay relative to control.

The target in assay [7] is Protein kinase C gamma type (Homo sapiens) (UniProt P05129). Description: Inhibition of human recombinant PKCg at 500 nM in presence of ATP by radiometric assay relative to control.
Assay [8] deals with Eukaryotic translation initiation factor 2-alpha kinase 1 (Homo sapiens) (UniProt Q9BQI3). The assay is described as follows: Inhibition of human recombinant HRI at 500 nM in presence of ATP by radiometric assay relative to control.
The target in assay [9] is Hepatocyte growth factor receptor (Homo sapiens) (UniProt P08581). Description: Inhibition of human recombinant MET at 500 nM related to control ULK1.
For assay [10], the target named is Calcium/calmodulin-dependent protein kinase type 1G (Homo sapiens) (UniProt Q96NX5). Description: Inhibition of human recombinant CaMK1g at 500 nM related to control ULK1.
In assay [11] the target is MAP kinase-activated protein kinase 2 (Homo sapiens) (UniProt P49137). The assay is described as follows: Inhibition of human recombinant MAPKAPK2 at 15 nM related to control ULK1.
The target of assay [12] is BDNF/NT-3 growth factors receptor (Homo sapiens) (UniProt Q16620). Description: Inhibition of human recombinant TRKB at 15 nM in presence of ATP by radiometric assay relative to control.
In assay [13] the target is Serine/threonine-protein kinase WNK1 (Homo sapiens) (UniProt Q9H4A3). Description: Inhibition of human recombinant Wnk1 at 15 nM in presence of ATP by radiometric assay relative to control.
The target in assay [14] is Tyrosine-protein kinase Blk (Homo sapiens) (UniProt P51451). Description: Inhibition of human recombinant BLK at 15 nM related to control ULK1.
Chain of Tyrosine-protein kinase Blk (Homo sapiens) (P51451 2-505 limits assumed): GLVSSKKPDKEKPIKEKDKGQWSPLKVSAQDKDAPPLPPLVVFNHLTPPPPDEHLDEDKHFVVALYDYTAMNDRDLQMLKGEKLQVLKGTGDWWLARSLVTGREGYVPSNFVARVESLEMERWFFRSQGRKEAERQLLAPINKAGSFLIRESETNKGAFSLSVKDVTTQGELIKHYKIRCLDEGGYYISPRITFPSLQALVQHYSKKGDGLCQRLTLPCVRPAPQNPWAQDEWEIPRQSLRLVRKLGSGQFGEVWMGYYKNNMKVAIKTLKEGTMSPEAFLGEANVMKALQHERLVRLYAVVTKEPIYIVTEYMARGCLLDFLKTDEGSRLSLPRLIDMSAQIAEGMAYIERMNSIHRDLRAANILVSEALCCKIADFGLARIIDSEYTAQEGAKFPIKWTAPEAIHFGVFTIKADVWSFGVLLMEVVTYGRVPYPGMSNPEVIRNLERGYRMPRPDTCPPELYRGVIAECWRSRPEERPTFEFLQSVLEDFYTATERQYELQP

Chain of Eukaryotic translation initiation factor 2-alpha kinase 1 (Homo sapiens) (Q9BQI3 whole entry): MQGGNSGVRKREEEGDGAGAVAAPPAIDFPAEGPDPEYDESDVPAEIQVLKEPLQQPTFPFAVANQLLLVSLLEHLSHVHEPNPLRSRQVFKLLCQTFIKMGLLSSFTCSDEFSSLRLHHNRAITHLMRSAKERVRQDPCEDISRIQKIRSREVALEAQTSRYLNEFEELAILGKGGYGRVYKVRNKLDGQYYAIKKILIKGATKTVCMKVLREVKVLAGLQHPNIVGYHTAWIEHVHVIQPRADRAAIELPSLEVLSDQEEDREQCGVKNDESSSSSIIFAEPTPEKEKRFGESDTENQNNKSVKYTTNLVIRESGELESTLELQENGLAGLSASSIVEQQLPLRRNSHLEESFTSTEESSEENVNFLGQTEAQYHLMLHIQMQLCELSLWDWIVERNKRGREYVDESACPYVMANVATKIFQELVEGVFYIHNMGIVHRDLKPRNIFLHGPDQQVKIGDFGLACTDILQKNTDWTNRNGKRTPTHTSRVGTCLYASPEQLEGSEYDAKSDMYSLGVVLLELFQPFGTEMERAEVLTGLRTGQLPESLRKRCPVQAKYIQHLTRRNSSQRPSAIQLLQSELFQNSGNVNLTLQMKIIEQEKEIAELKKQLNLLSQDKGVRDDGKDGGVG
Chain of BDNF/NT-3 growth factors receptor (Homo sapiens) (Q16620 32-822 limits assumed): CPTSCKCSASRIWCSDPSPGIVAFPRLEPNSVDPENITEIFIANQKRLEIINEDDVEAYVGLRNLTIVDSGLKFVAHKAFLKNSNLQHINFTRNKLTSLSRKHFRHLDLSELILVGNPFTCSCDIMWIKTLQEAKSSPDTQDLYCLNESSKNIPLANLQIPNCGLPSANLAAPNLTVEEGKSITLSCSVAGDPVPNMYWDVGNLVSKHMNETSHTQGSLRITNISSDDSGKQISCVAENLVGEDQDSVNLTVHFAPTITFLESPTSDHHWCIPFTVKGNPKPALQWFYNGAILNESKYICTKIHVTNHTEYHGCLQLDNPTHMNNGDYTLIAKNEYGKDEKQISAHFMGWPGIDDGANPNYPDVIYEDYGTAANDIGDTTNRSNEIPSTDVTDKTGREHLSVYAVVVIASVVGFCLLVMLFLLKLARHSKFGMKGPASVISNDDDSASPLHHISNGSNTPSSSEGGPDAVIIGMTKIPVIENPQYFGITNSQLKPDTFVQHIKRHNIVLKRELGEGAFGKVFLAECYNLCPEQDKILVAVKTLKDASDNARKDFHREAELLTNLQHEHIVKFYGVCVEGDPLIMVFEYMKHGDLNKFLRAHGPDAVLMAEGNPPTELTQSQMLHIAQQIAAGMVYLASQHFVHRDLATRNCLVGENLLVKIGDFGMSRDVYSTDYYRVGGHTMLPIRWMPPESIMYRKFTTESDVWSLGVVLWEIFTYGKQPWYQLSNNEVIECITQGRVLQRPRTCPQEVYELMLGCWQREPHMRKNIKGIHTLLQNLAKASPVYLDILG
Chain of Serine/threonine-protein kinase PAK 4 (Homo sapiens) (O96013 whole entry, looked up): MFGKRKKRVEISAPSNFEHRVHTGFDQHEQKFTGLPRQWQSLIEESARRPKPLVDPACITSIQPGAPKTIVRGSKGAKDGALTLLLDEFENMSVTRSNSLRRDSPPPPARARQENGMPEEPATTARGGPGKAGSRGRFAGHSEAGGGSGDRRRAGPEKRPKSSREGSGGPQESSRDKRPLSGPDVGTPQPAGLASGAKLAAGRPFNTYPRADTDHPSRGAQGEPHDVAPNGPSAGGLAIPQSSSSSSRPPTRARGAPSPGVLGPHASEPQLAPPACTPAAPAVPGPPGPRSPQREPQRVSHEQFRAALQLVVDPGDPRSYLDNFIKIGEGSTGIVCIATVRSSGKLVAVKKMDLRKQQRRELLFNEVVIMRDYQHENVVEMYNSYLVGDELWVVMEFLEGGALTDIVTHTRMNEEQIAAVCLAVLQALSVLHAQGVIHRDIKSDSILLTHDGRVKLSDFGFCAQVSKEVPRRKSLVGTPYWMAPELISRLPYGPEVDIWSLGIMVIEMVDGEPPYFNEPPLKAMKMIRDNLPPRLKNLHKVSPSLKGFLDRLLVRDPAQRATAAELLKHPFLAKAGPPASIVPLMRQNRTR
Chain of Serine/threonine-protein kinase WNK1 (Homo sapiens) (Q9H4A3 whole entry, looked up): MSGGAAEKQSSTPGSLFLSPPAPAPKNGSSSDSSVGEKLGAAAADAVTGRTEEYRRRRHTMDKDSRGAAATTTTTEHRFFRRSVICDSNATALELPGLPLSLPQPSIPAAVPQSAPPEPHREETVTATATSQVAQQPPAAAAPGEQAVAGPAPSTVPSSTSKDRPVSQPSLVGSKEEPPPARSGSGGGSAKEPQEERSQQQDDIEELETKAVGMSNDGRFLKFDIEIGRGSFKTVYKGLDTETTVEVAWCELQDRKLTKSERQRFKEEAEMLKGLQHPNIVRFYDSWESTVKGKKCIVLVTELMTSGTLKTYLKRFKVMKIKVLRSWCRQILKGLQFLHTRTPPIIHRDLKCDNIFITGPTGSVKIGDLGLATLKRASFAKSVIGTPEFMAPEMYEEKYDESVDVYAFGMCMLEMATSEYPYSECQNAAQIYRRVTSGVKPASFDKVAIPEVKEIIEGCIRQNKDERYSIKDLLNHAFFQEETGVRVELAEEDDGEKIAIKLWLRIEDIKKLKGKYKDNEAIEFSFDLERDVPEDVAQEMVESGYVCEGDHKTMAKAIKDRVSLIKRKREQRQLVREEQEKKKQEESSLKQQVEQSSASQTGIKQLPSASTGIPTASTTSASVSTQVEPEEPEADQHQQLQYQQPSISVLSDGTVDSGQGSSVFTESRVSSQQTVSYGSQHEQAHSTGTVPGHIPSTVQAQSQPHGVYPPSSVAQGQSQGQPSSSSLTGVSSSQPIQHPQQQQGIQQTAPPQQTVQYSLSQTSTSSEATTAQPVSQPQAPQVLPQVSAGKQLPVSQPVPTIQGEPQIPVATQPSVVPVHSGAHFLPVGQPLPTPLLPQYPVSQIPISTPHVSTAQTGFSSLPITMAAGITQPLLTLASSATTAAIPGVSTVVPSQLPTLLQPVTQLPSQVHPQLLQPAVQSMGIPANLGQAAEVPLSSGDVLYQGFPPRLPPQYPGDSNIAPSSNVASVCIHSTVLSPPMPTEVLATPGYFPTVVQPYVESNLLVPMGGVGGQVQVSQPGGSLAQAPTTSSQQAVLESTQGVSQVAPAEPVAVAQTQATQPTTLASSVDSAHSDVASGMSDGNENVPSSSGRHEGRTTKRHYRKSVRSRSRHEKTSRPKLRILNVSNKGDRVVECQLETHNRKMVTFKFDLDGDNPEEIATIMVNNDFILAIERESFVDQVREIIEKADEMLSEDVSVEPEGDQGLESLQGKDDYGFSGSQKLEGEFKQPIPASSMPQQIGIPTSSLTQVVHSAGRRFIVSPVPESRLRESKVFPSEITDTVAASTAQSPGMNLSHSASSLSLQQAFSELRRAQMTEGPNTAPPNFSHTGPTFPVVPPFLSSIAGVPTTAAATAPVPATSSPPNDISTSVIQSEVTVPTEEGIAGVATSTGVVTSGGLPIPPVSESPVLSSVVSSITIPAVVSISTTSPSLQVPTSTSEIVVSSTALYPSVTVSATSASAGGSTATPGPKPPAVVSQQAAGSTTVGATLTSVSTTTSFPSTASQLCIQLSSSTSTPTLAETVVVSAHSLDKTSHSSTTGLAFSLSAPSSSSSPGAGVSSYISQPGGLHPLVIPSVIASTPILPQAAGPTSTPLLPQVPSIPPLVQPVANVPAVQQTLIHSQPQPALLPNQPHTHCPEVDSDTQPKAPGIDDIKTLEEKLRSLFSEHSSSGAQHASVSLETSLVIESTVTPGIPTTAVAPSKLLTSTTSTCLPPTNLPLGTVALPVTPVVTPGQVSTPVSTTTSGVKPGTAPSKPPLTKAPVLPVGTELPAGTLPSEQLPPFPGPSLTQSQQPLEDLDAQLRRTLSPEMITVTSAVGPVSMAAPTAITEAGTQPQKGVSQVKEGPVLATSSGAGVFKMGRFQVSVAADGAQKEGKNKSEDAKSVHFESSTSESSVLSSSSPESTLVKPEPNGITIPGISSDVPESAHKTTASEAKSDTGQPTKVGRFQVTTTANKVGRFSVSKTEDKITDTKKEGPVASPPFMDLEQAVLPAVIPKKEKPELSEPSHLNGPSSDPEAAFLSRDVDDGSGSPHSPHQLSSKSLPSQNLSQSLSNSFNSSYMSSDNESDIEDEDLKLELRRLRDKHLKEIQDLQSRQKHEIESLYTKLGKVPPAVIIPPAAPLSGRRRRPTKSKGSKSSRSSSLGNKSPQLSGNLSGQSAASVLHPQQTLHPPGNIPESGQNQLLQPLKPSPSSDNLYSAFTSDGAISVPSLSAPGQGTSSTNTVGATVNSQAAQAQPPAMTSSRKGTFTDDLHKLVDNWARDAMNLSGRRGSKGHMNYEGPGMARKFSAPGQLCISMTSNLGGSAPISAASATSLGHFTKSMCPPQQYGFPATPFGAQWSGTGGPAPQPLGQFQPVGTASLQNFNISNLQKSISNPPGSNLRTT

Consider `O=C(N[C@@H](C1CC1)C(F)(F)F)c1cc(-c2cnn3cc(-c4ccc(F)cc4)cnc23)cs1`, for which the inhibition (usually the drop in the measured response relative to a control, in per cent) in assay [1] was determined as 0%; in assay [3], 0%; in assay [5] it was 8%; in [6] it was 0%. For the same compound, the fold change (FC) in [2] and in [4] was 0 in each case.
In the case of `CNC(=O)c1ccccc1Oc1nc(Nc2cc(OC)c(OC)c(OC)c2)ncc1Br`, the inhibition in assay [7] amounted to 9%; in assay [8], 0%. Besides, the fold change (FC) in assay [9] was determined as 0.43; in assay [10] it was 0.08.
For the compound `CC(C)[C@H](NC(=O)c1cc(-c2cnn3cc(-c4ccc(OCCN5CCCCC5)cc4)cnc23)cs1)C(F)(F)F`, the fold change (FC) was found to be 0 in assay [11] and 0.11 in assay [14]. For the same compound, the inhibition in assay [12] was 0%; in assay [13], 4%.

Values taken from ChEMBL document CHEMBL5653631, “A Potent and Selective ULK1 Inhibitor Suppresses Autophagy and Sensitizes Cancer Cells to Nutrient Stress” (iScience, 2018).
